Numbered stars: 1 amine (or outer) side, 2 acyl side, 3 side chain; on linkers, the order of the positions; unused ones are H or OH. Square brackets hold non-standard residues; d marks the D form. Peptide text beside a SMILES is read from it. Nva(5-(4-Bn-piperidin-1-yl)) = N[C@@H](CCCN1CCC(Cc2ccccc2)CC1)C(=O)O; X2 = O=C1[C@@H](N[*:1])Cc2ccccc2CN1CCCC(=O)[*:2]; X1 = O=C1[C@@H](N[*:1])Cc2ccccc2CN1CCC(=O)[*:2]; Tic(7-OH) = O=C(O)[C@@H]1Cc2ccc(O)cc2CN1; Dmt = Cc1cc(O)cc(C)c1C[C@H](N)C(=O)O; Nlys = NCCCCNCC(=O)O; βAla = NCCC(=O)O; Sar = CNCC(=O)O

Emax and EC50 data for 20 molecules are collected here from ChEMBL document CHEMBL5506024, “Multitarget μ-Opioid Receptor Agonists─Neuropeptide FF Receptor Antagonists Induce Potent Antinociception with Reduced Adverse Side Effects” (J Med Chem, 2024).

What all share (format): functional, cell-based
Assay [1] deals with T1, Mu-type opioid receptor (Homo sapiens, UniProt P35372). The assay is described as follows: Agonist activity at human MOP expressed in HEK293 cells coexpressing GloSensor-20F assessed as inhibition of forskolin-induced cAMP accumulation relative to control. (In general: Changes in cAMP serve as a functional read-out for many G protein-coupled receptors.)
T1 sequence (P35372 whole entry): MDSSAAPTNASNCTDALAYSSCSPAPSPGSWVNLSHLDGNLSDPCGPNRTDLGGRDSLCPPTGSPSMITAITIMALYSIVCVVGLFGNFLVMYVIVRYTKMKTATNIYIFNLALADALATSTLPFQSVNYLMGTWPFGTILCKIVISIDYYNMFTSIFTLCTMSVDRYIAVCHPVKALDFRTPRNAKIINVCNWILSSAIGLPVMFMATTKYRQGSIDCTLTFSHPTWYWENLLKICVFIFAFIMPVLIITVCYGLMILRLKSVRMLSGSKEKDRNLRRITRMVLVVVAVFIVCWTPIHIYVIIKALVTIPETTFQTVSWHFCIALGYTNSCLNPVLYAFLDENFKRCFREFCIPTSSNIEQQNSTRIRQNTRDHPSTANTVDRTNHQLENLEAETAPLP
The target of assay [2] is T1, Mu-type opioid receptor. The assay is described as follows: Agonist activity at human Rluc8-tagged MOP expressed in HEK293 cells coexpressing eYFP-tagged beta-arrestin-2 assessed as beta-arrestin-2 recruitment incubated for 5 mins by luminometer analysis relative to control.
Assay [3] addresses T1, Mu-type opioid receptor. Briefly: Agonist activity at human Rluc8-tagged MOP expressed in HEK293 cells coexpressing eYFP-tagged beta-arrestin-2 assessed as beta-arrestin-2 recruitment incubated for 5 mins by luminometer analysis. For orientation: Recruitment of arrestin is a read-out of receptor activation apart from second messengers.
Assay [4] deals with T1, Mu-type opioid receptor. Briefly: Agonist activity at human MOP expressed in HEK293 cells coexpressing GloSensor-20F assessed as inhibition of forskolin-induced cAMP accumulation. Particulars: hek293; call rule not given here.

On to `Cc1cc(O)cc(C)c1C[C@H](N)C(=O)N[C@H](CCCNC(=N)N)C(=O)N[C@H]1Cc2ccccc2CN(CCC(=O)N[C@@H](CCCN2CCC(Cc3ccccc3)CC2)C(=O)N[C@@H](Cc2c[nH]c3ccccc23)C(N)=O)C1=O` (H-[Dmt][dR][X1][Nva(5-(4-Bn-piperidin-1-yl))]W-NH2), for which the Emax (usually the maximal effect, on the per cent scale that the assay sets) in assay [1] (filed as agonist) worked out at 81%; in assay [2] (filed as agonist), 42%.
With `Cc1cc(O)cc(C)c1C[C@H](N)C(=O)N(CCCCN)CC(=O)N[C@H]1Cc2ccccc2CN(CCC(=O)N[C@@H](CCCN2CCC(Cc3ccccc3)CC2)C(=O)N[C@@H](Cc2ccccc2)C(N)=O)C1=O` (H-[Dmt][Nlys][X1][Nva(5-(4-Bn-piperidin-1-yl))]F-NH2), the Emax in assay [1] is 15%. For the same molecule, the EC50 – broadly, the concentration that produces a half-maximal response – in assay [3] (hek293) is listed as “Not Active”.
Consider `Cc1cc(O)cc(C)c1C[C@H](N)C(=O)N[C@H](CCCNC(=N)N)C(=O)N[C@H]1Cc2ccccc2CN(CCC(=O)N[C@@H](CCCN2CCC(Cc3ccccc3)CC2)C(=O)N[C@@H](Cc2ccc(O)cc2)C(N)=O)C1=O` (H-[Dmt][dR][X1][Nva(5-(4-Bn-piperidin-1-yl))]Y-NH2), for which the Emax in assay [1] (filed as agonist) was found to be 88%; in assay [2] (filed as agonist), 64%.
For `Cc1cc(O)cc(C)c1C[C@H](N)C(=O)N[C@H](CCCNC(=N)N)C(=O)N[C@H]1Cc2ccccc2CN(CCCC(=O)N[C@@H](CCCN2CCC(Cc3ccccc3)CC2)C(=O)N[C@@H](Cc2c[nH]c3ccccc23)C(N)=O)C1=O` (H-[Dmt][dR][X2][Nva(5-(4-Bn-piperidin-1-yl))]W-NH2), the Emax was found to be 90% in assay [1] (filed as agonist) and 30% in assay [2].
Taken in the same sequence, the figures for `Cc1cc(O)cc(C)c1C[C@H](N)C(=O)N[C@H](CCCNC(=N)N)C(=O)N[C@H]1Cc2ccccc2CN(CCCC(=O)N[C@@H](CCCN2CCC(Cc3ccccc3)CC2)C(=O)N[C@@H](Cc2ccccc2)C(N)=O)C1=O` (H-[Dmt][dR][X2][Nva(5-(4-Bn-piperidin-1-yl))]F-NH2) were 108% and 31%.
As for `Cc1cc(O)cc(C)c1C[C@H](N)C(=O)N[C@H](CCCNC(=N)N)C(=O)N[C@@H](Cc1ccccc1)C(=O)NCCC(=O)N[C@@H](CCCN1CCC(Cc2ccccc2)CC1)C(=O)N[C@@H](Cc1ccccc1)C(N)=O` (H-[Dmt][dR]F[βAla][Nva(5-(4-Bn-piperidin-1-yl))]F-NH2), the Emax in assay [1] (filed as agonist) was found to be 101%; in assay [2] (filed as agonist) it was 53%.
Turning to `CC[C@H](C)[C@H](NC(=O)[C@H](CCCN1CCC(Cc2ccccc2)CC1)NC(=O)CCN1Cc2ccccc2C[C@H](NC(=O)[C@@H](CCCNC(=N)N)NC(=O)[C@@H](N)Cc2c(C)cc(O)cc2C)C1=O)C(N)=O` (H-[Dmt][dR][X1][Nva(5-(4-Bn-piperidin-1-yl))]I-NH2), the Emax in assay [1] (filed as agonist) was found to be 110%; in assay [2] (filed as agonist), 49%.
Take `Cc1cc(O)cc(C)c1C[C@H](N)C(=O)N[C@H](CCCNC(=N)N)C(=O)N[C@H]1Cc2ccccc2CN(CCCC(=O)N[C@@H](CCCN2CCC(Cc3ccccc3)CC2)C(=O)N[C@H](C(N)=O)C(C)C)C1=O` (H-[Dmt][dR][X2][Nva(5-(4-Bn-piperidin-1-yl))]V-NH2): the results for the Emax in assay [1] (filed as agonist) and in assay [2] (filed as agonist) were 101% and 53%, respectively.
With `Cc1cc(O)cc(C)c1C[C@@H](N)C(=O)N[C@H](CCCNC(=N)N)C(=O)N[C@@H](Cc1ccccc1)C(=O)N(C)CCC(=O)N[C@@H](CCCN1CCC(Cc2ccccc2)CC1)C(=O)N[C@@H](Cc1ccccc1)C(N)=O`, the values for the Emax in assay [1] (filed as agonist) and in assay [2] (filed as agonist) were 110% and 49%, respectively.
For `Cc1cc(O)cc(C)c1C[C@H](N)C(=O)N[C@H](CCCNC(=N)N)C(=O)N[C@H]1Cc2ccccc2CN(CCC(=O)N[C@@H](CCCN2CCC(Cc3ccccc3)CC2)C(=O)N[C@H](Cc2ccccc2)C(N)=O)C1=O`, in that order: 109% and 59%.
As for `Cc1cc(O)cc(C)c1C[C@H](N)C(=O)N[C@H](CCCNC(=N)N)C(=O)N[C@H]1Cc2ccccc2CN(CCC(=O)N[C@@H](CCCN2CCC(Cc3ccccc3)CC2)C(=O)N[C@@H](Cc2ccccc2)C(=O)NCCC(N)=O)C1=O` (H-[Dmt][dR][X1][Nva(5-(4-Bn-piperidin-1-yl))]F[βAla]-NH2), the Emax was 95% in assay [1] (filed as agonist) and 31% in assay [2].
Take `Cc1cc(O)cc(C)c1C[C@H](N)C(=O)N[C@H](CCCNC(=N)N)C(=O)N[C@@H](Cc1ccccc1)C(=O)N(C)[C@H](C)C(=O)N[C@@H](CCCN1CCC(Cc2ccccc2)CC1)C(=O)N[C@@H](Cc1ccccc1)C(N)=O`: the Emax is 111% in assay [1] (filed as agonist) and 83% in assay [2] (filed as agonist). Besides, the EC50 in assay [3] (read-out: EC50) turned out to be 154 nM.
Turning to `Cc1cc(O)cc(C)c1C[C@H](N)C(=O)N[C@H](CCCNC(=N)N)C(=O)N[C@@H](Cc1ccccc1)C(=O)N(C)CC(=O)N[C@@H](CCCN1CCC(Cc2ccccc2)CC1)C(=O)N[C@H](C(N)=O)C(C)C` (H-[Dmt][dR]F[Sar][Nva(5-(4-Bn-piperidin-1-yl))]V-NH2), the Emax in assay [1] (filed as agonist) was 110%; in assay [2] (filed as agonist) it was 116%. The EC50 in assay [3] (read-out: EC50) was found to be 59 nM.
As to `Cc1cc(O)cc(C)c1C[C@H](N)C(=O)N[C@H](CCCNC(=N)N)C(=O)N[C@H]1Cc2ccccc2CN(CCC(=O)N[C@@H](CCCN2CCC(Cc3ccccc3)CC2)C(=O)N[C@H](C(N)=O)C(C)C)C1=O` (H-[Dmt][dR][X1][Nva(5-(4-Bn-piperidin-1-yl))]V-NH2), the Emax in assay [1] (filed as agonist) was determined as 124%; in assay [2] (filed as agonist) it was 52%.
With `Cc1cc(O)cc(C)c1C[C@H](N)C(=O)N[C@H](CCCNC(=N)N)C(=O)N[C@@H](Cc1ccccc1)C(=O)N(C)CC(=O)N[C@@H](CCCN1CCC(Cc2ccccc2)CC1)C(=O)N[C@@H](Cc1ccccc1)C(N)=O` (H-[Dmt][dR]F[Sar][Nva(5-(4-Bn-piperidin-1-yl))]F-NH2), the Emax in assay [1] (filed as agonist) came out at 97%; in assay [2] (filed as agonist), 96%. In addition, in assay [3] (read-out: EC50), the EC50 was 53 nM.
As for `Cc1cc(O)cc(C)c1C[C@H](N)C(=O)N[C@H](CCCN1CCC(Cc2ccccc2)CC1)C(=O)N[C@H]1Cc2ccccc2CN(CCC(=O)N[C@@H](CCCN2CCC(Cc3ccccc3)CC2)C(=O)N[C@@H](Cc2ccccc2)C(N)=O)C1=O`, the maximal effect (Emax) in assay [1] was 35%.
Consider `Cc1cc(O)cc(C)c1C[C@H](N)C(=O)N[C@H](CCCNC(=N)N)C(=O)N[C@H](Cc1ccccc1)C(=O)N(C)CCC(=O)N[C@@H](CCCN1CCC(Cc2ccccc2)CC1)C(=O)N[C@@H](Cc1ccccc1)C(N)=O`, for which the EC50 in assay [4] came out at 180 nM. Also, the Emax in assay [1] (filed as agonist) was 65%.
`N=C(N)NCCC[C@@H](NC(=O)[C@@H]1Cc2ccc(O)cc2CN1)C(=O)N[C@H]1Cc2ccccc2CN(CCC(=O)N[C@@H](CCCN2CCC(Cc3ccccc3)CC2)C(=O)N[C@@H](Cc2ccccc2)C(N)=O)C1=O` (H-[Tic(7-OH)][dR][X1][Nva(5-(4-Bn-piperidin-1-yl))]F-NH2): the results for the Emax in assay [1] (filed as agonist) and in assay [2] were 46% and 33%, respectively. In addition, the EC50 in assay [3] (read-out: EC50) was determined as 1340 nM.
As to `Cc1cc(O)cc(C)c1C[C@H](N)C(=O)N[C@H](CCCNC(=N)N)C(=O)N[C@H]1Cc2ccccc2CN(CCC(=O)N[C@@H](CCCN2CCc3ccccc3C2)C(=O)N[C@@H](Cc2ccccc2)C(N)=O)C1=O`, the Emax in assay [1] (filed as agonist) worked out at 98%; in assay [2] (filed as agonist) it was 60%. Besides, the EC50 in assay [3] (read-out: EC50) turned out to be 25 nM.
For `Cc1cc(O)cc(C)c1C[C@H](N)C(=O)N[C@H](CCCNC(=N)N)C(=O)N[C@H]1Cc2ccccc2CN(CCC(=O)N[C@@H](CCCN2CCC(Cc3ccccc3)CC2)C(=O)N[C@@H](CC(C)C)C(N)=O)C1=O` (H-[Dmt][dR][X1][Nva(5-(4-Bn-piperidin-1-yl))]L-NH2), the Emax was 70% in assay [1] (filed as agonist) and 38% in assay [2].
